“And” between values parts separate entries of the source, which are not always exact repeats. Identical values can stand only once. Toxic doses and inconclusive results are not listed.
Test system: P388 leukemia ip, CD2F1 mice, survival T/C
Assay: NCI In Vivo Anticancer Drug Screen. Data for tumor model P388 Leukemia (intraperitoneal) in CD2F1 (CDF1) mice
Settings: endpoint: median survival time, higher = longer survival
How it was run: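 Mice carrying the transplanted tumor received test compound or vehicle. Survival was recorded in each group, and the value is the treated-group measurement divided by that of the vehicle-treated control group.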

[1] = dose: 50.0 mg/kg/injection, schedule: Q01DX005 (ip), vehicle: Klucel (hydroxypropylcellulose) (HPC)
[2] = dose: 100.0 mg/kg/injection, schedule: Q01DX005 (ip), vehicle: Klucel (hydroxypropylcellulose) (HPC)
[3] = dose: 200.0 mg/kg/injection, schedule: Q01DX005 (ip), vehicle: Klucel (hydroxypropylcellulose) (HPC)
[4] = dose: 50.0 mg/kg/injection, schedule: Q01DX005 (ip), vehicle: saline with Tween-80
[5] = dose: 100.0 mg/kg/injection, schedule: Q01DX005 (ip), vehicle: saline with Tween-80
[6] = dose: 200.0 mg/kg/injection, schedule: Q01DX005 (ip), vehicle: saline with Tween-80
[7] = dose: 50.0 mg/kg/injection, schedule: Q01DX009 (ip), vehicle: saline with Tween-80
[8] = dose: 100.0 mg/kg/injection, schedule: Q01DX009 (ip), vehicle: saline with Tween-80
[9] = dose: 200.0 mg/kg/injection, schedule: Q01DX009 (ip), vehicle: saline with Tween-80

SMILES: NNc1c(C(N)=O)c2c(N)ncnc2n1C1OC(CO)C(O)C1O (stereo not drawn)
- T/C (dose: 3.12 mg/kg/injection, schedule: Q01DX005 (ip), vehicle: Klucel (hydroxypropylcellulose) (HPC)): 157 % of control
- T/C (dose: 6.25 mg/kg/injection, schedule: Q01DX005 (ip), vehicle: Klucel (hydroxypropylcellulose) (HPC)): 166 % of control
- T/C (dose: 12.5 mg/kg/injection, schedule: Q01DX005 (ip), vehicle: Klucel (hydroxypropylcellulose) (HPC)): 157 % of control
- T/C (dose: 50.0 mg/kg/injection, schedule: Q04DX003 (ip), vehicle: Klucel (hydroxypropylcellulose) (HPC)): 115 % of control
- T/C (dose: 100.0 mg/kg/injection, schedule: Q04DX003 (ip), vehicle: Klucel (hydroxypropylcellulose) (HPC)): 115 % of control
- T/C (dose: 100.0 mg/kg/injection, schedule: Q04DX003 (ip), vehicle: water): 120 % of control
- T/C (dose: 200.0 mg/kg/injection, schedule: Q04DX003 (ip), vehicle: water): 86 % of control

SMILES: Cc1nc(CO)cc([N+](=O)[O-])c1C
- T/C (dose: 12.5 mg/kg/injection, schedule: Q01DX009 (ip), vehicle: distilled water + Tween-80): 101 % of control
- T/C (dose: 25.0 mg/kg/injection, schedule: Q01DX009 (ip), vehicle: distilled water + Tween-80): 101 % of control
- T/C (dose: 50.0 mg/kg/injection, schedule: Q01DX009 (ip), vehicle: distilled water + Tween-80): 100 % of control
- T/C (dose: 100.0 mg/kg/injection, schedule: Q01DX009 (ip), vehicle: distilled water + Tween-80): 101 % of control
- T/C (dose: 200.0 mg/kg/injection, schedule: Q01DX009 (ip), vehicle: distilled water + Tween-80): 104 % of control

SMILES: CC(C)(c1ccccc1)[N+](C)(C)C
- T/C (dose: 5.0 mg/kg/injection, schedule: Q01DX009 (ip), vehicle: saline with Tween-80): 100 % of control
- T/C (dose: 10.0 mg/kg/injection, schedule: Q01DX009 (ip), vehicle: saline with Tween-80): 104 % of control
- T/C (dose: 10.0 mg/kg/injection, schedule: Q04DX003 (ip), vehicle: saline): 90 % of control
- T/C (dose: 20.0 mg/kg/injection, schedule: Q01DX009 (ip), vehicle: saline with Tween-80): 109 % of control
- T/C (dose: 20.0 mg/kg/injection, schedule: Q04DX003 (ip), vehicle: saline): 95 % of control

SMILES: CCOC(=O)/C(C#N)=C/NCCc1c[nH]c2ccccc12
- T/C [1]: 102 % of control
- T/C [2]: 103 % of control
- T/C [3]: 94 % of control

SMILES: CC(C)c1ccc(/C(O)=C/C(=O)C(=O)/C=C(/O)c2ccc(C(C)C)cc2)cc1
- T/C (dose: 100.0 mg/kg/injection, schedule: Q04DX002 (ip), vehicle: saline): 100 % of control
- T/C (dose: 200.0 mg/kg/injection, schedule: Q04DX002 (ip), vehicle: saline): 100 % of control
- T/C (dose: 400.0 mg/kg/injection, schedule: Q04DX002 (ip), vehicle: saline): 99 % of control

SMILES: O=C(Nc1c[nH]c(=O)[nH]c1=O)C(Cl)Cl
- T/C (dose: 3.12 mg/kg/injection, schedule: Q01DX009 (ip), vehicle: saline): 93 % of control
- T/C (dose: 6.25 mg/kg/injection, schedule: Q01DX009 (ip), vehicle: saline): 97 % of control
- T/C (dose: 12.5 mg/kg/injection, schedule: Q01DX009 (ip), vehicle: saline): 101 % of control
- T/C (dose: 25.0 mg/kg/injection, schedule: Q01DX009 (ip), vehicle: saline): 100 % of control

SMILES: O=c1c(CCl)c(-c2ccc([N+](=O)[O-])cc2)sc2ccccc12
- T/C (dose: 100.0 mg/kg/injection, schedule: Q04DX002 (ip), vehicle: saline with Tween-80): 100 % of control
- T/C (dose: 200.0 mg/kg/injection, schedule: Q04DX002 (ip), vehicle: saline with Tween-80): 98 % of control
- T/C (dose: 400.0 mg/kg/injection, schedule: Q04DX002 (ip), vehicle: saline with Tween-80): 92 % of control

SMILES: CCOC(=O)c1cnc2cc3c(cc2c1Nc1ccccc1C(=O)OC)OCO3
- T/C (dose: 50.0 mg/kg/injection, schedule: Q04DX002 (ip), vehicle: Klucel (hydroxypropylcellulose) (HPC)): 101 % of control
- T/C (dose: 100.0 mg/kg/injection, schedule: Q04DX002 (ip), vehicle: Klucel (hydroxypropylcellulose) (HPC)): 101 % of control
- T/C (dose: 200.0 mg/kg/injection, schedule: Q04DX002 (ip), vehicle: Klucel (hydroxypropylcellulose) (HPC)): 97 % of control

SMILES: CCOC(=O)CNCCN(CC)CC
- T/C (dose: 100.0 mg/kg/injection, schedule: Q01DX001 (ip), vehicle: saline with Tween-80): 109 % of control
- T/C (dose: 200.0 mg/kg/injection, schedule: Q01DX001 (ip), vehicle: saline with Tween-80): 95 % of control
- T/C (dose: 400.0 mg/kg/injection, schedule: Q01DX001 (ip), vehicle: saline with Tween-80): 100 % of control

SMILES: C#CCn1cc(F)c(=O)n(CC#C)c1=O
- T/C (dose: 30.0 mg/kg/injection, schedule: Q04DX002 (ip), vehicle: saline with Tween-80): 101 % of control
- T/C (dose: 60.0 mg/kg/injection, schedule: Q04DX002 (ip), vehicle: saline with Tween-80): 99 % of control
- T/C (dose: 120.0 mg/kg/injection, schedule: Q04DX002 (ip), vehicle: saline with Tween-80): 98 % of control
- T/C (dose: 150.0 mg/kg/injection, schedule: Q04DX002 (ip), vehicle: saline with Tween-80): 107 % of control
- T/C (dose: 240.0 mg/kg/injection, schedule: Q04DX002 (ip), vehicle: saline with Tween-80): 100 % of control
- T/C (dose: 300.0 mg/kg/injection, schedule: Q04DX002 (ip), vehicle: saline with Tween-80): 104 % of control
- T/C (dose: 600.0 mg/kg/injection, schedule: Q04DX002 (ip), vehicle: saline with Tween-80): 98 % of control

SMILES: COc1ccc2c(c1)CC(C)[N+]([O-])=C2C(F)(F)F (stereo not drawn)
- T/C [4]: 99 % of control
- T/C [5]: 102 % of control
- T/C [6]: 104 % of control

SMILES: CCOC(=O)C(N=Nc1ccccc1)/N=N\c1nn[nH]n1 (stereo not drawn)
- T/C (dose: 50.0 mg/kg/injection, schedule: Q01DX001 (ip), vehicle: Klucel (hydroxypropylcellulose) (HPC)): 91 % of control
- T/C (dose: 100.0 mg/kg/injection, schedule: Q01DX001 (ip), vehicle: Klucel (hydroxypropylcellulose) (HPC)): 91 % of control
- T/C (dose: 200.0 mg/kg/injection, schedule: Q01DX001 (ip), vehicle: Klucel (hydroxypropylcellulose) (HPC)): 91 % of control

SMILES: Cc1ccc(-c2cc(=O)c3cccc(CC(=O)O)c3o2)cc1
- T/C (dose: 25.0 mg/kg/injection, schedule: Q01DX005 (ip), vehicle: Klucel (hydroxypropylcellulose) (HPC)): 112 % of control and 89 % of control
- T/C [1]: 104 % of control and 118 % of control
- T/C [2]: 119 % of control and 90 % of control

SMILES: CCCCCCCCCCOC(=O)c1ccc(O)cc1
- T/C [7]: 97 % of control
- T/C [8]: 102 % of control
- T/C [9]: 97 % of control

SMILES: COc1ccc2oc(=O)n(N=C(C)C)c(=O)c2c1
- T/C (dose: 60.0 mg/kg/injection, schedule: Q01DX005 (ip), vehicle: Klucel (hydroxypropylcellulose) (HPC)): 97 % of control
- T/C (dose: 120.0 mg/kg/injection, schedule: Q01DX005 (ip), vehicle: Klucel (hydroxypropylcellulose) (HPC)): 95 % of control
- T/C (dose: 240.0 mg/kg/injection, schedule: Q01DX005 (ip), vehicle: Klucel (hydroxypropylcellulose) (HPC)): 94 % of control

SMILES: O=C(NCCN1CCC(n2c(=O)[nH]c3cc(Cl)ccc32)CC1)c1ccc(F)cc1
- T/C [4]: 95 % of control
- T/C [5]: 88 % of control
- T/C [6]: 90 % of control

SMILES: Cc1nc(Nc2ccc(F)cc2)c2c(C)c[nH]c2n1
- T/C [1]: 90 % of control
- T/C [2]: 88 % of control
- T/C [3]: 89 % of control

SMILES: CCC(c1ccccc1)c1cc2c(cc1OC(C)=O)OCO2 (stereo not drawn)
- T/C [4]: 104 % of control
- T/C [5]: 107 % of control
- T/C [6]: 102 % of control

SMILES: Cc1cccc(N2CCN(c3ccc4nonc4c3[N+](=O)[O-])CC2)c1
- T/C (dose: 50.0 mg/kg/injection, schedule: Q01DX009 (ip), vehicle: suspension in saline): 98 % of control
- T/C (dose: 100.0 mg/kg/injection, schedule: Q01DX009 (ip), vehicle: suspension in saline): 92 % of control and 95 % of control
- T/C (dose: 200.0 mg/kg/injection, schedule: Q01DX009 (ip), vehicle: suspension in saline): 89 % of control and 90 % of control

SMILES: CCCCCCCCCOCC(=O)O
- T/C [7]: 100 % of control
- T/C [8]: 99 % of control
- T/C [9]: 95 % of control

SMILES: CS(=O)(=O)CCS(C)(=O)=O
- T/C [7]: 102 % of control
- T/C [9]: 89 % of control

SMILES: O=C1OC(C(O)CO)/C(=N\O)C1O (stereo not drawn)
- T/C (dose: 50.0 mg/kg/injection, schedule: Q01DX009 (ip), vehicle: saline): 104 % of control
- T/C (dose: 100.0 mg/kg/injection, schedule: Q01DX009 (ip), vehicle: saline): 104 % of control
- T/C (dose: 200.0 mg/kg/injection, schedule: Q01DX009 (ip), vehicle: saline): 111 % of control

SMILES: Fc1ccccc1CSc1ncnc2nc[nH]c12
- T/C [7]: 100 % of control
- T/C [8]: 100 % of control
- T/C (dose: 100.0 mg/kg/injection, schedule: Q04DX003 (ip), vehicle: saline with Tween-80): 104 % of control
- T/C (dose: 132.0 mg/kg/injection, schedule: Q04DX003 (ip), vehicle: saline with Tween-80): 100 % of control
- T/C [9]: 100 % of control

From PubChem BioAssay AID330 (DTP/NCI, 2004)
